Assay results taken from US7371734B2, “Oligonucleotide compositions and their use for the modulation of immune responses” (Bioniche Life Sciences Inc., priority 2002, dated 2008).
Marks after values point to notes of the source that are not given here.

Assays:
Type in all cases: cell-based
Human dendritic cells [1] = test: Induction of IL-12 by sequences plus GM-CSF (ELISA); details: 100 μg, 48 hours
Procedure: (§1) Human dendritic cells were obtained from Clonetics (San Diego, Calif., USA) and were cultured in the medium recommended by Clonetics. DC were obtained from three different individuals (see Table 1). Major histocompatability typing was performed on each of these individuals and several of the HLA (human leukocyte antigens) types are shown.
DC from the individual B were seeded in 1.0 ml at 1.0×10^5 cells/ml in 6-well flat-bottomed tissue culture plates for 48 hours with 500 units of human recombinant GM-CSF (Clonetics) and 100 μg of 6 base polynucleotide N1A or polynucleotide N7A. Production of IL-12 was determined in 100 μl of culture supernatant using a commercial ELISA (BioSource) after 48 hours of incubation. Results are expressed as the “fold” (x) increase in IL-12 production by treated DC compared to control cells in absence or presence of recombinant GM-CSF.

Human dendritic cells [2] = test: CD40 levels at the DC cell surface (flow cytometry); details: 100 μg, 48 hours
Procedure: as §1
DC from individuals B and C were seeded in 1.0 ml at 1.0×10^5 cells/ml in 6-well flat-bottomed tissue culture plates for 48 hours with 100 μg of 6 base N1A, N1B, N2A, N2B, N3A, N3B, N4A, N4B, N5A, N5B, N6A, N6B, N7A or N7B polynucleotides. The level of CD40 at the cell surface was determined after 48 hours of incubation by flow cytometry (FACSCalibur system) using a FITC-conjugated monoclonal antibody directed to CD40 and analyzed by CELLQuest Pro (all from Becton Dickinson). Results are expressed as the percentage of CD40^hi DC following treatment. The term “CD40^hi” refers to a population of cells identified by flow cytometry as having higher than baseline expression of CD40.

Human dendritic cells [3] = test: Increase in cell size and granularity of DC (flow cytometry); details: 100 μg polynucleotide, 48 hours
Procedure: as §1
DC were seeded in 1.0 ml at 1.0×10^5 cells/ml in 6-well flat-bottomed tissue culture plates for 48 hours with 100 μg of 6 base N1A, N1B, N2A, N2B, N3A, N3B, N4A, N4B, N5A, N5B, N6A, N6B, N7A or N7B polynucleotides. Cell size (FCS: forward side scatter) and granularity (S SC: side light scatter) were determined by flow cytometry using a FACSCalibur and analyzed using the CELLQuest Pro software (both from Becton-Dickinson, San Diego, Calif., USA). Percentage of DC showing a FCS>500 units and a SSC>400 units have been determined after treatment with 3-OH, 5-OH polynucleotides for DC isolated from three different individuals.

Human dendritic cells [4] = test: CD80 levels at the DC cell surface (flow cytometry); details: 100 μg, 48 hours
Procedure: as §1
(§2) DC from individuals B and C were seeded in 1.0 ml at 1.0×10^5 cells/ml in 6-well flat-bottomed tissue culture plates for 48 hours with 100 μg of 6 base N1A, N1B, N2A, N2B, N3A, N3B, N4A, N4B, N5A, N5B, N6A, N6B, N7A or N7B polynucleotides. The level of CD80 at the cell surface was determined after 48 hours of incubation by flow cytometry using a FITC-conjugated monoclonal antibody directed to CD80 (Serotec, Oxford, U.K.) and analyzed by CELLQuest. Results are expressed as the percentage of CD80^hi DC following treatment.

Human dendritic cells [5] = test: CD86 levels at the DC cell surface (flow cytometry); details: 100 μg, 48 hours
Procedure: as §1
as §2, with “CD86” for “CD80”, “PE-conjugated” for “FITC-conjugated”, “CD86 (Serotec)” for “CD80 (Serotec, Oxford, U.K.)”, “CELLQuest Pro.” for “CELLQuest.”, “CD86^hi” for “CD80^hi”

Human dendritic cells [6] = test: Induction of IFN-gamma production by DC (ELISA); details: 100 μg, 48 hours
Procedure: as §1
DC were seeded in 1.0 ml at 1.0×10^5 cells/ml in 6-well flat-bottomed tissue culture plates for 48 hours with 100 μg of6 base N1A, N1B, N2A, N2B, N3A, N3B, N4A, N4B, N5A, N5B, N6A, N6B, N7A or N7B polynucleotides. Production of IFN-gamma was determined in 100 μl of culture supernatant using a commercial ELISA (BioSource) after 48 hours of incubation. Results are expressed as the “fold” (x) increase in IFN-gamma production by treated DC compared to control cells.

Human dendritic cells [7] = test: Induction of IL-12 production by DC (ELISA); details: 100 μg, 48 hours
Procedure: as §1
DC were seeded in 1.0 ml at 1.0×10^5 cells/ml in 6-well flat-bottomed tissue culture plates for 48 hours with 100 μg of 6 base N1A, N1B, N2A, N2B, N3A, N3B, N4A, N4B, N5A, N5B, N6A, N6B, N7A or N7B polynucleotides. Production of IL-12 was determined in 100 μl of culture supernatant using a commercial ELISA (BioSource) after 48 hours of incubation. Results are expressed as the “fold” (x) increase in IL-12 production by treated DC compared to control cells.

Human dendritic cells [8] = test: MHC-II levels at the DC cell surface (flow cytometry); details: DC from individual B; 100 μg, 48 hours
Procedure: as §1
DC from individual B were seeded in 1.0 ml at 1.0×10^5 cells/ml in 6-well flat-bottomed tissue culture plates for 48 hours with 100 μg of 6 base N1A, N1B, N2A, N2B, N3A, N3B, N5A, N5B, N6A, N6B, N7A or N7B polynucleotides. The level of MHC II at the cell surface was determined after 48 hours of incubation by flow cytometry using a FITC-conjugated monoclonal antibody directed to MHC II (Serotec) and analyzed by CELLQuest Pro. Results are expressed as the percentage of MHC II^hi DC following treatment.

Human dendritic cells [9] = test: Induction of IL-1beta production by DC (ELISA); details: 100 μg, 48 hours
Procedure: as §1
DC were seeded in 1.0 ml at 1.0×10^5 cells/ml in 6-well flat-bottomed tissue culture plates for 48 hours with 100 μg of 6 base N1A, N1B, N2A, N2B, N3A, N3B, N4A, N4B, N5A, N5B, N6A, N6B, N7A or N7B polynucleotides. Production of IL-1beta was determined in 100 μl of culture supernatant using a commercial ELISA (BioSource, Camarillo, Calif., USA) after 48 hours of incubation. Results are expressed as the “fold” (x) increase in IL-1beta production by treated DC compared to control cells.

[10] = +GM-CSF (500 units human recombinant)

Substance | IL-12 production by DC from the individual B (fold increase compared to untreated DC) (Human dendritic cells [1]; [10]) [fold] | IL-12 production by DC from the individual B (fold increase compared to untreated DC) (Human dendritic cells [1]; w/o GM-CSF) [fold] | The percentage of CD40^hi DC following treatment (Human dendritic cells [2]; DC from individual C) | Percentage of DC showing a FCS > 500 units and a SSC > 400 units (Human dendritic cells [3]; DC isolated from individual A) [%] | Percentage of DC showing a FCS > 500 units and a SSC > 400 units (Human dendritic cells [3]; DC isolated from individual C) [%] | The percentage of CD80^hi DC following treatment (Human dendritic cells [4]; DC from individual B) | The percentage of CD80^hi DC following treatment (Human dendritic cells [4]; DC from individual C) | The percentage of CD86^hi DC following treatment (Human dendritic cells [5]; DC from individual C) [%] | IFN-gamma production by DC (fold increase compared to untreated DC) (Human dendritic cells [6]; DC isolated from individual A) [fold] | IFN-gamma production by DC (fold increase compared to untreated DC) (Human dendritic cells [6]; DC isolated from individual C) [fold] | IL-12 production by DC (fold increase compared to untreated DC) (Human dendritic cells [7]; DC isolated from individual A) [fold] | IL-12 production by DC (fold increase compared to untreated DC) (Human dendritic cells [7]; DC isolated from individual C) [fold] | The percentage of MHC-II^hi DC following treatment (Human dendritic cells [8]) | IL-1beta production by DC (fold increase compared to untreated DC) (Human dendritic cells [9]; DC isolated from individual A) [fold] | IL-1beta production by DC (fold increase compared to untreated DC) (Human dendritic cells [9]; DC isolated from individual C) [fold] | also measured
5′GGGCGG3′ [N7A] (DNA, all phosphodiester, methylation of C not given here) | 11.7 | 9.6 | 23% | 8 | 30 | 23** % | 22** % | 34 | 1.0 | 1.0 | 1.0 | 0.9 | 21% | 1.1 | 1.0 | –
5′GTGTGT3′ [N1A] | 15.3 | 14.7 | 24** % | 6 | 18 | 45** % | 41** % | 14 | 0.8 | 1.0 | 15.9 | 2.1 | 32** % | 1.0 | 1.0 | The percentage of CD40^hi DC following treatment (Human dendritic cells [2]; DC from individual B): 21%; Percentage of DC showing a FCS > 500 units and a SSC > 400 units (Human dendritic cells [3]; DC isolated from individual B): 9%; The percentage of CD86^hi DC following treatment (Human dendritic cells [5]; DC from individual B): 10%; IFN-gamma production by DC (fold increase compared to untreated DC) (Human dendritic cells [6]; DC isolated from individual B): 1.0 fold; IL-12 production by DC (fold increase compared to untreated DC) (Human dendritic cells [7]; DC isolated from individual B): 17.8 fold; IL-1beta production by DC (fold increase compared to untreated DC) (Human dendritic cells [9]; DC isolated from individual B): 1.2 fold
